Legend:
intracellular HBV DNA = test: Real-time PCR for intracellular HBV DNA in HepAD38 cells; type: cell-based; conditions: Hepatitis B virus, HePAD38, 65 h, 65 hours treatment
[1] = Cell viability assay (EZ-Cytox), cytotoxicity; type: cell-based; conditions: human, HepAD38 cells; for viability at 65 h, 100 µM: read-out: Cytotoxicity % Livability (@100 μM)
Description: HepAD38 cells were cultured for 2 days in Dulbecco's Modified Eagle's medium (Welgene, LM001-05) supplemented with 10% FBS without tetracycline. […] After 65 hours of treatment, viability was measured using EZ-Cytox cell viability assay kit (Daeil Lab Service) according to the manufacturer's instructions. The absorbance was measured at 450 nm using a spectrophotometer (Spark, Tecan).

COc1ncc(N(Cc2cc(C(F)(F)F)[nH]n2)C(=O)Nc2cccc(C(F)F)c2)cn1 [Example 176, 3-(3-(difluoromethyl)phenyl)-1-(2-methoxypyrimidin-5-yl)-1-((5-(trifluoromethyl)-1H-pyrazol-3-yl)methyl)urea]
IC50 (intracellular HBV DNA): 0.036 µM
CC50 at 65 h [1]: > 100 µM
viability at 65 h, 100 µM [1]: 53.5%

COc1ncc(N(Cc2cc(C(F)F)[nH]n2)C(=O)Nc2cccc(C(F)F)c2)cn1 [Example 178, 1-((5-(difluoromethyl)-1H-pyrazol-3-yl)methyl)-3-(3-(difluoromethyl)phenyl)-1-(2-methoxypyrimidin-5-yl)urea]
IC50 (intracellular HBV DNA): 0.022 µM
CC50 at 65 h [1]: > 100 µM
viability at 65 h, 100 µM [1]: 68.5%

COc1ncc(N(Cc2cc(C(F)F)[nH]n2)C(=O)Nc2cccc(C(F)F)n2)cn1 [Example 179, 1-((5-(difluoromethyl)-1H-pyrazol-3-yl)methyl)-3-(6-(difluoromethyl)pyridin-2-yl)-1-(2-methoxypyrimidin-5-yl)urea]
IC50 (intracellular HBV DNA): 0.7 µM
CC50 at 65 h [1]: > 100 µM
viability at 65 h, 100 µM [1]: 79.3%

COc1ncc(N(Cc2cc(C#N)[nH]n2)C(=O)Nc2cccc(C(F)F)c2)cn1 [Example 180, 1-((5-cyano-1H-pyrazol-3-yl)methyl)-3-(3-(difluoromethyl)phenyl)-1-(2-methoxypyrimidin-5-yl)urea]
IC50 (intracellular HBV DNA): 0.064 µM
CC50 at 65 h [1]: > 100 µM
viability at 65 h, 100 µM [1]: 88.1%

COC12CC(N(Cc3cc(C(F)(F)F)[nH]n3)C(=O)Nc3cccc(C(F)F)c3)(C1)C2 [Example 181, 3-(3-(difluoromethyl)phenyl)-1-(3-methoxybicyclo[1.1.1]pentan-1-yl)-1-((5-(trifluoromethyl)-1H-pyrazol-3-yl)methyl)urea]
IC50 (intracellular HBV DNA): 0.13 µM
CC50 at 65 h [1]: > 100 µM
viability at 65 h, 100 µM [1]: 64.9%

CCOCCc1c(CN(C(=O)Nc2ccc(F)cc2)c2ccc(OC)nc2)n[nH]c1C(F)(F)F [Example 182, 1-((4-(2-ethoxyethyl)-5-(trifluoromethyl)-1H-pyrazol-3-yl)methyl)-3-(4-fluorophenyl)-1-(6-methoxypyridin-3-yl)urea]
IC50 (intracellular HBV DNA): > 1.1 µM
CC50 at 65 h [1]: > 100 µM
viability at 65 h, 100 µM [1]: 104%

COc1ncc(N(Cc2cc(C(F)(F)F)[nH]n2)C(=O)Nc2cnc(F)nc2)cn1 [Example 186, 3-(2-fluoropyrimidin-5-yl)-1-(2-methoxypyrimidin-5-yl)-1-((5-(trifluoromethyl)-1H-pyrazol-3-yl)methyl)urea]
IC50 (intracellular HBV DNA): > 1.1 µM
CC50 at 65 h [1]: > 100 µM
viability at 65 h, 100 µM [1]: 86.4%

COc1ncc(N(Cc2cc(C(F)(F)F)[nH]n2)C(=O)Nc2cc(F)ccn2)cn1 [Example 187, 3-(4-fluoropyridin-2-yl)-1-(2-methoxypyrimidin-5-yl)-1-((5-(trifluoromethyl)-1H-pyrazol-3-yl)methyl)urea]
IC50 (intracellular HBV DNA): > 1.1 µM
CC50 at 65 h [1]: > 100 µM

COc1ccc(N(Cc2cc(C(F)(F)F)[nH]n2)C(=O)Nc2ccc(F)c(C(F)F)c2)cn1 [Example 188, 3-(3-(difluoromethyl)-4-fluorophenyl)-1-(6-methoxypyridin-3-yl)-1-((5-(trifluoromethyl)-1H-pyrazol-3-yl)methyl)urea]
IC50 (intracellular HBV DNA): 0.016 µM
CC50 at 65 h [1]: > 100 µM
viability at 65 h, 100 µM [1]: 97.9%

COc1ncc(N(Cc2cc(C(F)(F)F)[nH]n2)C(=O)Nc2ccc(F)c(C(F)F)c2)cn1 [Example 189, 3-(3-(difluoromethyl)-4-fluorophenyl)-1-(2-methoxypyrimidin-5-yl)-1-((5-(trifluoromethyl)-1H-pyrazol-3-yl)methyl)urea]
IC50 (intracellular HBV DNA): 0.0065 µM
CC50 at 65 h [1]: > 100 µM
viability at 65 h, 100 µM [1]: 58%

COc1ncc(N(Cc2cc(C(F)(F)F)[nH]n2)C(=O)Nc2cc(C(F)F)c(F)cn2)cn1 [Example 192, 3-(4-(difluoromethyl)-5-fluoropyridin-2-yl)-1-(2-methoxypyrimidin-5-yl)-1-((5-(trifluoromethyl)-1H-pyrazol-3-yl)methyl)urea]
IC50 (intracellular HBV DNA): 0.059 µM
CC50 at 65 h [1]: > 100 µM
viability at 65 h, 100 µM [1]: 104%

COc1ncc(N(Cc2n[nH]c(C(F)(F)F)c2CCO)C(=O)Nc2ccc(F)c(C(F)F)c2)cn1 [Example 193, 3-(3-(difluoromethyl)-4-fluorophenyl)-1-((4-(2-hydroxyethyl)-5-(trifluoromethyl)-1H-pyrazol-3-yl)methyl)-1-(2-methoxypyrimidin-5-yl)urea]
IC50 (intracellular HBV DNA): 0.18 µM
CC50 at 65 h [1]: > 100 µM

COc1ncc(N(Cc2n[nH]c(C(F)(F)F)c2Br)C(=O)Nc2ccc(F)c(C(F)F)c2)cn1 [Example 194, 1-((4-bromo-5-(trifluoromethyl)-1H-pyrazol-3-yl)methyl)-3-(3-(difluoromethyl)-4-fluorophenyl)-1-(2-methoxypyrimidin-5-yl)urea]
IC50 (intracellular HBV DNA): 0.021 µM
CC50 at 65 h [1]: > 100 µM

COc1ccc(N(Cc2cc(C(F)F)[nH]n2)C(=O)Nc2ccc(F)c(C(F)F)c2)nn1 [Example 195, 1-((5-(difluoromethyl)-1H-pyrazol-3-yl)methyl)-3-(3-(difluoromethyl)-4-fluorophenyl)-1-(6-methoxypyridazin-3-yl)urea]
IC50 (intracellular HBV DNA): > 1.1 µM
CC50 at 65 h [1]: > 100 µM
viability at 65 h, 100 µM [1]: 100%

COc1ncc(N(Cc2cc(C(F)F)[nH]n2)C(=O)Nc2ccc(F)c(C(F)F)n2)cn1 [Example 196, 1-((5-(difluoromethyl)-1H-pyrazol-3-yl)methyl)-3-(6-(difluoromethyl)-5-fluoropyridin-2-yl)-1-(2-methoxypyrimidin-5-yl)urea]
IC50 (intracellular HBV DNA): 0.16 µM
CC50 at 65 h [1]: 76.4 µM
viability at 65 h, 100 µM [1]: 29.2%

COc1ncc(N(Cc2n[nH]c(C(F)F)c2Br)C(=O)Nc2ccc(F)c(C(F)F)c2)cn1 [Example 197, 1-((4-bromo-5-(difluoromethyl)-1H-pyrazol-3-yl)methyl)-3-(3-(difluoromethyl)-4-fluorophenyl)-1-(2-methoxypyrimidin-5-yl)urea]
IC50 (intracellular HBV DNA): 0.019 µM
CC50 at 65 h [1]: 79.1 µM
viability at 65 h, 100 µM [1]: 11.5%

COc1ncc(N(Cc2n[nH]c(C(F)F)c2C(C)(C)O)C(=O)Nc2ccc(F)c(C(F)F)c2)cn1 [Example 198, 1-((5-(difluoromethyl)-4-(2-hydroxypropan-2-yl)-1H-pyrazol-3-yl)methyl)-3-(3-(difluoromethyl)-4-fluorophenyl)-1-(2-methoxypyrimidin-5-yl)urea]
IC50 (intracellular HBV DNA): > 1.1 µM
CC50 at 65 h [1]: > 100 µM
viability at 65 h, 100 µM [1]: 102%

COc1ncc(N(Cc2n[nH]c(C(F)(F)F)c2CC(C)O)C(=O)Nc2ccc(F)c(C(F)F)c2)cn1 (stereo not drawn) [Example 199, 3-(3-(difluoromethyl)-4-fluorophenyl)-1-((4-(2-hydroxypropyl)-5-(trifluoromethyl)-1H-pyrazol-3-yl)methyl)-1-(2-methoxypyrimidin-5-yl)urea]
IC50 (intracellular HBV DNA): 0.75 µM
CC50 at 65 h [1]: > 100 µM
viability at 65 h, 100 µM [1]: 95.7%

COc1cc(N(Cc2cc(C(F)F)[nH]n2)C(=O)Nc2ccc(F)c(C(F)F)c2)cnn1 [Example 201, 1-((5-(difluoromethyl)-1H-pyrazol-3-yl)methyl)-3-(3-(difluoromethyl)-4-fluorophenyl)-1-(6-methoxypyridazin-4-yl)urea]
IC50 (intracellular HBV DNA): 0.028 µM
CC50 at 65 h [1]: > 100 µM
viability at 65 h, 100 µM [1]: 107%

COc1ncc(N(Cc2cc(C(F)(F)F)[nH]n2)C(=O)Nc2ccc(F)c(C(F)F)n2)cn1 [Example 202, 3-(6-(difluoromethyl)-5-fluoropyridin-2-yl)-1-(2-methoxypyrimidin-5-yl)-1-((5-(trifluoromethyl)-1H-pyrazol-3-yl)methyl)urea]
IC50 (intracellular HBV DNA): 0.046 µM
CC50 at 65 h [1]: > 100 µM
viability at 65 h, 100 µM [1]: 82.3%

COc1ncc(N(Cc2cc(C(F)(F)F)[nH]n2)C(=O)Nc2ccc(C(F)F)c(F)c2)cn1 [Example 206, 3-(4-(difluoromethyl)-3-fluorophenyl)-1-(2-methoxypyrimidin-5-yl)-1-((5-(trifluoromethyl)-1H-pyrazol-3-yl)methyl)urea]
IC50 (intracellular HBV DNA): 0.18 µM
CC50 at 65 h [1]: > 100 µM
viability at 65 h, 100 µM [1]: 89.6%

COc1ncc(N(Cc2n[nH]c(C(F)(F)F)c2C(C)(C)O)C(=O)Nc2ccc(F)c(C(F)F)c2)cn1 [Example 207, 3-(3-(difluoromethyl)-4-fluorophenyl)-1-((4-(2-hydroxypropan-2-yl)-5-(trifluoromethyl)-1H-pyrazol-3-yl)methyl)-1-(2-methoxypyrimidin-5-yl)urea]
IC50 (intracellular HBV DNA): 0.74 µM
CC50 at 65 h [1]: > 100 µM
viability at 65 h, 100 µM [1]: 87.7%

COc1ncc(N(Cc2cc(C#N)[nH]n2)C(=O)Nc2ccc(F)c(C(F)F)n2)cn1 [Example 212, 1-((5-cyano-1H-pyrazol-3-yl)methyl)-3-(6-(difluoromethyl)-5-fluoropyridin-2-yl)-1-(2-methoxypyrimidin-5-yl)urea]
IC50 (intracellular HBV DNA): 0.21 µM
CC50 at 65 h [1]: > 100 µM
viability at 65 h, 100 µM [1]: 99.4%

COC12CC(N(Cc3cc(C(F)(F)F)[nH]n3)C(=O)Nc3ccc(F)c(C(F)F)c3)(C1)C2 [Example 213, 3-(3-(difluoromethyl)-4-fluorophenyl)-1-(3-methoxybicyclo[1.1.1]pentan-1-yl)-1-((5-(trifluoromethyl)-1H-pyrazol-3-yl)methyl)urea]
IC50 (intracellular HBV DNA): 0.016 µM
CC50 at 65 h [1]: > 100 µM
viability at 65 h, 100 µM [1]: 63.1%

COC12CC(N(Cc3cc(C(F)(F)F)[nH]n3)C(=O)Nc3ccc(F)c(C(F)F)n3)(C1)C2 [Example 214, 3-(6-(difluoromethyl)-5-fluoropyridin-2-yl)-1-(3-methoxybicyclo[1.1.1]pentan-1-yl)-1-((5-(trifluoromethyl)-1H-pyrazol-3-yl)methyl)urea]
IC50 (intracellular HBV DNA): 0.22 µM
CC50 at 65 h [1]: > 100 µM
viability at 65 h, 100 µM [1]: 76.8%

COc1ncc(N(Cc2cc(C#N)[nH]n2)C(=O)Nc2ccc(F)c(C(F)(F)F)c2)cn1 [Example 215, 1-((5-cyano-1H-pyrazol-3-yl)methyl)-3-(4-fluoro-3-(trifluoromethyl)phenyl)-1-(2-methoxypyrimidin-5-yl)urea]
IC50 (intracellular HBV DNA): 0.02 µM
CC50 at 65 h [1]: > 100 µM
viability at 65 h, 100 µM [1]: 67%
